Patent US20240199728A1, “METHODS OF TREATING OBESITY, DIABETES, AND LIVER DYSFUNCTION” (REGENERON PHARMACEUTICALS, INC., priority 2022, published 2024)

Columns and labels:
Assay type in all cases: in vivo
[1] = system: diet-induced obesity (DIO) mouse model; assay: Body weight and body composition (MRI) over time in diet-induced obesity (DIO) mouse model; design: Body weight changes over time, Mean / Lean mass changes over time, Mean / Fat mass changes over time, Mean: unit not given here; conditions: DIO mice; for Fat mass changes over time, Mean / Lean mass changes over time, Mean: MRI
Text: (§1) DIO mice that have been fed a high fat diet for at least 20 weeks were distributed into 4 different groups balanced by body fat content as determined by MRI and blood glucose. On day 0, all mice were implanted with osmotic pumps (Alzet, Cat #2004), in which the stainless steel flow moderators were replaced with PEEK tubing (DURECT Corporation, Cat #0002496) to allow for MRI measurements during the experiment. Pumps for groups 1 and 2 contained PBS, while pumps used for groups 3 and 4 contained Semaglutide (0.833 mg/mL for […] infusion). The next day (day 1), mice were injected with their respective antibodies: group 1 and group 3: Isotype control (at 20 mg/kg); group 2 and group 4: anti-GDF8 antibody (REGN1033) & anti-Activin A antibody (REGN2477) (at 10 mg/kg each). The antibody injections were repeated on days 4 and 7 and once weekly after that.
(§2) Body composition using MRI and fed blood glucose using a glucometer from tail bleeds were measured weekly in the morning. Mice were also bled for insulin measurements on a weekly basis. An oral glucose tolerance test (OGTT) was performed on day 23. For the OGTT, mice were fasted for 4 hours, and baseline glucose was measured. Subsequently, 2 g/kg glucose was administered to the mice by oral gavage, and glucose was measured again after 30, 60, 90, and 120 minutes. On day 26, 6 hour fasted blood glucose was measured, and mice were bled for insulin assessment as described above. At the end of the study (day 28/29), mice were sacrificed, and tissue (skeletal muscle, adipose, pancreas, heart, spleen, liver) was collected for weight and further analysis. Mouse plasma was used to measure circulating levels of ALT, AST, non-esterified fatty acids (NEFAs), triglycerides (trigs), and cholesterol (chol) on the Advia Chemistry Analyzer from Siemens. One lobe of the liver was fresh frozen to allow for triglyceride extraction and quantification using standard protocols. Another lobe of the liver and the pancreas were fixed in 10% formalin, embedded in paraffin, and sectioned for liver histology. H&E, as well as smooth muscle actin (SMA), staining was performed, and slides were subjected to quantification using Halo software. Paraffin sections of the pancreas were stained for insulin and glucagon to determine beta cell and alpha cell mass, respectively, using Halo software.

[2] = system: diet-induced obesity (DIO) mouse model; assay: Final tissue/organ weights at end of study (day 28/29), DIO mice; conditions: control group = 0.00 (FIG. 2B: % change vs. control), in %
Text: DIO mice that have been fed a high fat diet for at least 20 weeks were distributed into 4 different groups balanced by body fat content as determined by MRI and blood glucose. On day 0, all mice were implanted with osmotic pumps (Alzet, Cat #2004), in which the stainless steel flow moderators were replaced with PEEK tubing (DURECT Corporation, Cat #0002496) to allow for MRI measurements during the experiment. Pumps for groups 1 and 2 contained PBS, while pumps used for groups 3 and 4 contained Semaglutide (0.833 mg/mL for 7 ug/day infusion). […]
Body composition using MRI and fed blood glucose using a glucometer from tail bleeds were measured weekly in the morning. […] For the OGTT, mice were fasted for 4 hours, and baseline glucose was measured. Subsequently, 2 g/kg glucose was administered to the mice by oral gavage, and glucose was measured again after 30, 60, 90, and 120 minutes. On day 26, 6 hour fasted blood glucose was measured, and mice were bled for insulin assessment as described above. […] One lobe of the liver was fresh frozen to allow for triglyceride extraction and quantification using standard protocols. […] H&E, as well as smooth muscle actin (SMA), staining was performed, and slides were subjected to quantification using Halo software. […]

[3] = system: diet-induced obesity (DIO) mouse model; assay: Fed blood glucose, insulin and glucagon, DIO mice
Text: as §1, §2

[4] = system: diet-induced obesity (DIO) mouse model; assay: Oral glucose tolerance test (OGTT) and fasted blood glucose, DIO mice
Text: as §1
as §2, with “Subsequently, 2 g/kg glucose was administered to the mice by oral gavage, and glucose was measured again after 30, 60, 90, and 120 minutes.” left out

[5] = system: diet-induced obesity (DIO) mouse model; assay: Plasma ALT, AST, NEFA, triglycerides, cholesterol (Advia Chemistry Analyzer), DIO mice; conditions: end of study, first value of group (mean)
Text: as §1
as §2, with “Another lobe of the liver and the pancreas were fixed in 10% formalin, embedded in paraffin, and sectioned for liver histology.” left out, “Paraffin sections of the pancreas were stained for insulin and glucagon to determine beta cell and alpha cell mass, respectively, using Halo software.” left out

[6] = system: diet-induced obesity (DIO) mouse model; assay: Liver triglyceride extraction and liver histology (H&E, SMA staining), DIO mice; conditions: end of study
Text: as §1, §2

[7] = system: obese adult male cyno non-human primate (NHP) with NASH; assay: Obese NHP study of body weight, liver and metabolic effects of adding myostatin/activin A blockade onto GLP-1R agonism; conditions: week 12
Experimental: An obese NHP study of the body weight, liver and metabolic effects of adding on myostatin/activin A blockade onto GLP-1R agonism was carried out. FIG. 10 sets forth the study and timeline for obese adult male cyno non-human primate (NHP) with NASH, stratified based on body weight and % body fat, n=10 per arm.
The treatment groups were: • vehicle; • Semaglutide; • Anti-Myostatin+anti-Activin A; • Semaglutide+anti-Myostatin; and • Semaglutide+anti-Myostatin+anti-Activin A. REGN1033 is an anti-Myostatin antibody, and REGN2477 is an anti-Activin A antibody. The GLP-1 agonist employed was Semaglutide. Semaglutide was administered at 10 μg/kg. Anti-Myostatin antibody was administered at 50 mg/kg. Anti-Activin A antibody was administered at 50 mg/kg.
Postmenopausal women received 10 mg/kg (anti-myostatin+anti-activin A) IV, Q2W. Thigh muscle volume was measured via MRI, and android fat mass was measured via iDXA, both over 30 weeks. Obese non-human primates received 50 mg/kg anti-myostatin+50 mg/kg anti-activin A (QW). Total lean mass was measured via iDXA, and total fat mass was measured via iDXA, both over 28 weeks. […]

Substance: Semaglutide
- Body weight changes over time, Mean ([1]; Day 5): −11.33
- Body weight changes over time, Mean ([1]; Day 6): −12.46
- Body weight changes over time, Mean ([1]; Day 9): −15.25
- Body weight changes over time, Mean ([1]; Day 12): −16.20
- Body weight changes over time, Mean ([1]; Day 13): −15.72
- Body weight changes over time, Mean ([1]; Day 14): −17.49
- Body weight changes over time, Mean ([1]; Day 19): −15.74
- Body weight changes over time, Mean ([1]; Day 23): −13.16
- Body weight changes over time, Mean ([1]; Day 26): −12.53
- Body weight changes over time, Mean ([1]; Day −6 (before treatment)): 0
- Fat mass changes over time, Mean ([1]; Day 5): −23.75
- Lean mass changes over time, Mean ([1]; Day 5): −3.50
- Fat mass changes over time, Mean ([1]; Day 12): −33.78
- Lean mass changes over time, Mean ([1]; Day 12): −4.09
- Fat mass changes over time, Mean ([1]; Day 19): −34.24
- Lean mass changes over time, Mean ([1]; Day 19): −2.43
- Lean mass changes over time, Mean ([1]; Day 25): −1.93
- Fat mass changes over time, Mean ([1]; Day 26): −29.52
- Fat mass changes over time, Mean ([1]; Day −6 (before treatment)): 0
- Lean mass changes over time, Mean ([1]; Day −6 (before treatment)): 0
- decrease in body weight as compared with the control group ([1]; vs control group): approximately 14%
- decrease in lean mass as compared with the control group ([1]; vs control group): 3-4%
- loss in fat mass compared to the control group ([1]; vs control group (Group 1)): approximately 18%
- Final organ weights, Gonadal Fat, Mean [2]: −10.56
- Final organ weights, Subq Fat, Mean [2]: −22.58
- fed insulin over time, Mean ([3]; Day 6): 6.2175
- fed insulin over time, Mean ([3]; Day 13): 2.296
- Fed glucose over time, Mean ([3]; Day 20, in mg/dL (unit assumed)): 259.5
- fed insulin over time, Mean ([3]; Day −5 (before treatment)): 16.285
- Fed glucagon levels at day 20, Mean ([3]; day 20): 4.106
- Area under the curve of OGTT at day 23, Mean ([4]; 2 g/kg glucose oral gavage, day 23): 27698
- 4 hrs fasted glucose levels at day 23, Mean ([4]; 4 hrs fasted, day 23, in mg/dL (unit assumed)): 192.1
- 6 hrs fasted glucose levels at day 26, Mean ([4]; 6 hrs fasted, day 26, in mg/dL (unit assumed)): 172.6
- oGTT measurement on day 23 (glucose), Mean ([4]; Time 0 min): 192.125
- oGTT measurement on day 23 (glucose), Mean ([4]; Time 15 min): 433.5
- oGTT measurement on day 23 (glucose), Mean ([4]; Time 30 min): 310.75
- oGTT measurement on day 23 (glucose), Mean ([4]; Time 60 min): 230.75
- Plasma measurements - Liver panel, AST [5]: 103.625
- Plasma measurements - Liver panel, Chol [5]: 193.75
- Plasma measurements - Liver panel, NEFA [5]: 0.5837
- Liver fat area, Mean ([6]; H&E liver histology): 28.34
- SMA positive area (% of fat-free area), Mean ([6]; liver SMA staining): 6.942 % of fat-free area
- SMA positive area (normalized to nuclei amount), Mean ([6]; liver SMA staining): 14.32
- Liver triglycerides, Mean ([6]; liver tissue): 153.6
- lean mass (in words) [7]: lean mass loss
